This note sets out measurements from PubChem BioAssay (NCI).

Each structure is given as a SMILES string. Several values for one entry are separate records, joined by “and”; a condition that tells them apart may be missing. Identical values can stand only once.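 All cell lines were grown in 96-well plates and treated with compound for 48 hours. GI50: concentration for 50% inhibition of growth. TGI: concentration producing complete growth inhibition.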 A value given as a limit tells only on which side of the number the result lay.

Among the test systems are HS 578T breast; RPMI-8226 leukemia; OVCAR-4 ovarian; UACC-62 melanoma; EKVX NSCLC; CCRF-CEM leukemia; MALME-3M melanoma; NCI-H226 lung; TK-10 renal; RXF 393 renal.
Common to all, as to assay: NCI tumour cell line growth inhibition, 48 h

On to `O=C(CCCn1ccnc1[N+](=O)[O-])NCCn1cnc([N+](=O)[O-])c1`, for which the TGI with HS 578T breast, in the assay on RPMI-8226 leukemia, in the assay with OVCAR-4 ovarian, in the assay with UACC-62 melanoma, in the assay on EKVX NSCLC and with CCRF-CEM leukemia was over 100 µM throughout. The TGI in the assay with MALME-3M melanoma, in the assay with NCI-H226 lung and in the assay with TK-10 renal was over 100 µM each time.

On to `COc1ccc(S(=O)(=O)O)cc1NS(=O)(=O)c1ccc(C)cc1`, for which the TGI with HS 578T breast, with RPMI-8226 leukemia, in the assay on OVCAR-4 ovarian, with UACC-62 melanoma, in the assay on EKVX NSCLC and in the assay on CCRF-CEM leukemia was over 100 µM each time. Further, the TGI in the assay on NCI-H226 lung and with TK-10 renal was over 100 µM throughout.

For the molecule `Cc1cc2nc3ccc(N=Nc4ccc(N(C)C)cc4)cc3n(-c3ccccc3)c-2cc1=N`, the GI50 is 0.0168 µM in the assay on HS 578T breast; 0.00254 µM with RPMI-8226 leukemia; 0.0116 µM and 0.0415 µM in the assay on OVCAR-4 ovarian; 0.023 µM in the assay on EKVX NSCLC; 0.00858 µM and 0.0162 µM in the assay with CCRF-CEM leukemia. Moreover, the TGI in the assay with HS 578T breast was 0.0816 µM; in the assay on RPMI-8226 leukemia it was 0.02 µM; in the assay on OVCAR-4 ovarian it was 0.12 µM and 0.802 µM; in the assay on EKVX NSCLC it was 0.212 µM; in the assay on CCRF-CEM leukemia, 0.203 µM and 0.141 µM.

For `Nc1c(C(=O)Nc2cccc3ccccc23)sc2nc3c(cc12)CCCC3`, the GI50 with HS 578T breast is 0.852 µM; in the assay with RPMI-8226 leukemia it was 2.77 µM; in the assay with RXF 393 renal, 2.77 µM; with OVCAR-4 ovarian it was 1.11 µM; in the assay on UACC-62 melanoma, 0.716 µM; in the assay with EKVX NSCLC, 4.47 µM. Moreover, the results for the GI50 in the assay with CCRF-CEM leukemia, in the assay with NCI-H226 lung and in the assay on TK-10 renal were 0.658 µM, 17.5 µM and 14.6 µM, respectively. Further, the TGI in the assay on HS 578T breast, with RPMI-8226 leukemia, in the assay with RXF 393 renal, with OVCAR-4 ovarian, in the assay with UACC-62 melanoma and with EKVX NSCLC was over 100 µM throughout. Moreover, the TGI in the assay on CCRF-CEM leukemia, with NCI-H226 lung and in the assay with TK-10 renal was over 100 µM throughout.

Take `N#Cc1cc2cc3c4c(c2oc1=O)CCCN4CCC3`: the TGI with HS 578T breast, with RPMI-8226 leukemia, with RXF 393 renal, with OVCAR-4 ovarian, with UACC-62 melanoma and in the assay on EKVX NSCLC was over 100 µM throughout. Further, the TGI in the assay on CCRF-CEM leukemia, in the assay on NCI-H226 lung and in the assay on TK-10 renal was over 100 µM throughout.

Consider `O=S(=O)(NC(=S)Nc1ccccc1)c1ccc(N2N=C3c4ccccc4CC3C2c2ccc(Cl)cc2)cc1` (stereo not given), for which the GI50 with HS 578T breast was 30 µM; with RPMI-8226 leukemia, 19.6 µM; with RXF 393 renal, 43.1 µM; with OVCAR-4 ovarian, 42.2 µM; in the assay on UACC-62 melanoma, 18.3 µM; with EKVX NSCLC, 27.4 µM. The GI50 in the assay on CCRF-CEM leukemia is 19.7 µM; in the assay on NCI-H226 lung, 41.4 µM; with TK-10 renal, 30.2 µM. Besides, the TGI was 68.2 µM in the assay on HS 578T breast; 66.7 µM in the assay with RPMI-8226 leukemia; over 100 µM in the assay on RXF 393 renal; over 100 µM in the assay with OVCAR-4 ovarian; 38.8 µM in the assay on UACC-62 melanoma; 60.5 µM with EKVX NSCLC. Also, the TGI in the assay with CCRF-CEM leukemia is 57.5 µM; in the assay on NCI-H226 lung, over 100 µM; in the assay on TK-10 renal, 99.4 µM.

Consider `C/C1=C\CC[C@@](C)(O)[C@H]2C[C@H](CC/C(C)=C/CC1)C1(CC1)C(=O)O2`, for which the GI50 with HS 578T breast was 29.9 µM; in the assay on RPMI-8226 leukemia, 14.2 µM; in the assay with RXF 393 renal it was 18.4 µM; with OVCAR-4 ovarian it was 63.4 µM; with UACC-62 melanoma it was 23.9 µM; in the assay with EKVX NSCLC it was 37 µM. Besides, the figures for the GI50 in the assay with CCRF-CEM leukemia, in the assay on NCI-H226 lung and in the assay with TK-10 renal were 13.5 µM, 21.2 µM and 32.9 µM, respectively. Further, the TGI in the assay with HS 578T breast was 96.5 µM; with RPMI-8226 leukemia it was 35.8 µM; in the assay on RXF 393 renal, 42.8 µM; in the assay on OVCAR-4 ovarian it was over 100 µM; in the assay with UACC-62 melanoma, 99.8 µM; with EKVX NSCLC, over 100 µM. Besides, the TGI is 39 µM in the assay with CCRF-CEM leukemia, 46.5 µM in the assay on NCI-H226 lung and over 100 µM with TK-10 renal.

For `COc1cc2c(cc1OCCCCC(=O)Nc1ccc(-c3nc4ccccc4s3)cc1)N=C[C@@H]1CCCN1C2=O`, the GI50 is 2.75 µM with HS 578T breast; 1.45 µM in the assay with RPMI-8226 leukemia; 1.61 µM in the assay with RXF 393 renal; 2.82 µM with OVCAR-4 ovarian; 1.73 µM in the assay on UACC-62 melanoma; 2.45 µM in the assay on EKVX NSCLC. For the same molecule, the results for the GI50 in the assay on CCRF-CEM leukemia, with NCI-H226 lung and in the assay with TK-10 renal were 1.2 µM, 2.91 µM and 3.2 µM, respectively. For the same molecule, the TGI in the assay with HS 578T breast was determined as 5.86 µM; with RPMI-8226 leukemia, 3.96 µM; in the assay with RXF 393 renal it was 3.05 µM; in the assay with OVCAR-4 ovarian it was 27.9 µM; in the assay on UACC-62 melanoma, 3.39 µM; with EKVX NSCLC it was 5.52 µM. Further, the TGI was determined as 3.62 µM in the assay on CCRF-CEM leukemia, 7.83 µM with NCI-H226 lung and 7.97 µM in the assay on TK-10 renal.

Consider `Cc1cc[c-]cc1.Fc1c[c-]c(-c2ccccn2)c(F)c1.N#CCC[PH+](CCC#N)c1ccccc1.[Pt+2]`, for which the GI50 in the assay on HS 578T breast was 3.39 µM; in the assay with RPMI-8226 leukemia, 3.3 µM; in the assay with RXF 393 renal, 2.07 µM; in the assay on OVCAR-4 ovarian, 2.97 µM; in the assay on UACC-62 melanoma it was 1.79 µM; in the assay with EKVX NSCLC, 3.09 µM. For the same molecule, the GI50 is 3.49 µM with CCRF-CEM leukemia, 2.62 µM in the assay with NCI-H226 lung and 4.45 µM in the assay on TK-10 renal. Besides, the TGI in the assay with HS 578T breast amounted to 43.5 µM; in the assay on RPMI-8226 leukemia, 31.2 µM; in the assay on RXF 393 renal it was 4.78 µM; in the assay on OVCAR-4 ovarian it was 24.5 µM; with UACC-62 melanoma, 4.43 µM; with EKVX NSCLC, 22.3 µM. Besides, the TGI is over 100 µM with CCRF-CEM leukemia, 7.06 µM in the assay on NCI-H226 lung and 36 µM with TK-10 renal.

`COc1cc(/C=C/C(=O)c2c(C)n([O-])c3cc(C)c(C)cc3[n+]2=O)cc(OC)c1OC`: the GI50 in the assay with HS 578T breast was 19.9 µM; with OVCAR-4 ovarian, 16.5 µM; in the assay on UACC-62 melanoma, 15.5 µM; in the assay with EKVX NSCLC it was 18 µM; in the assay on CCRF-CEM leukemia, 5.68 µM; in the assay on MALME-3M melanoma, 19.6 µM. For the same molecule, the figures for the GI50 in the assay on NCI-H226 lung and in the assay with TK-10 renal were 21.6 µM and 14.8 µM, respectively. The TGI with HS 578T breast was 54.2 µM; in the assay on OVCAR-4 ovarian, 48 µM; in the assay on UACC-62 melanoma it was 37.9 µM; with EKVX NSCLC it was 42.1 µM; in the assay with CCRF-CEM leukemia, over 100 µM; with MALME-3M melanoma, 41.1 µM. Further, the TGI amounted to 55.5 µM with NCI-H226 lung and 31.2 µM in the assay with TK-10 renal.

With `O=C1CC(c2ccccc2)Cc2nc3ccc(Cl)cc3cc21` (stereo not given), the GI50 was 0.351 µM with HS 578T breast; 2.78 µM in the assay with RPMI-8226 leukemia; 7.26 µM in the assay with OVCAR-4 ovarian; 0.15 µM with UACC-62 melanoma; 0.732 µM in the assay on EKVX NSCLC; 0.0395 µM in the assay on CCRF-CEM leukemia. For the same molecule, the GI50 in the assay on MALME-3M melanoma is 0.0453 µM; with NCI-H226 lung, 0.795 µM; in the assay with TK-10 renal, 22.3 µM. For the same molecule, the TGI is over 100 µM in the assay with HS 578T breast; 37.8 µM with RPMI-8226 leukemia; over 100 µM in the assay on OVCAR-4 ovarian; 35.5 µM in the assay on UACC-62 melanoma; over 100 µM in the assay on EKVX NSCLC; over 100 µM in the assay with CCRF-CEM leukemia. The values for the TGI with MALME-3M melanoma, in the assay with NCI-H226 lung and in the assay on TK-10 renal were 52.9 µM, over 23.6 µM and over 100 µM, respectively.

Regarding `COc1ccc2nc(-c3ccccc3)cc(Nc3ccc(/C(C)=N/O)cc3)c2c1`, the GI50 is 2.24 µM with HS 578T breast; 2.16 µM in the assay with RPMI-8226 leukemia; 3.9 µM with OVCAR-4 ovarian; 2.1 µM in the assay on UACC-62 melanoma; 3.02 µM in the assay on EKVX NSCLC; 3.48 µM with CCRF-CEM leukemia. Moreover, the GI50 in the assay with MALME-3M melanoma was 2.8 µM; in the assay on NCI-H226 lung it was 1.95 µM; in the assay on TK-10 renal, 1.63 µM. Further, the TGI was 5.31 µM in the assay on HS 578T breast; 7.06 µM in the assay on RPMI-8226 leukemia; over 100 µM with OVCAR-4 ovarian; 4.65 µM in the assay on UACC-62 melanoma; over 100 µM with EKVX NSCLC; over 100 µM with CCRF-CEM leukemia. Besides, the TGI was 9.92 µM in the assay with MALME-3M melanoma, 4.39 µM with NCI-H226 lung and 3.42 µM with TK-10 renal.

Regarding `COc1cc(C/C=C/c2ccccc2)c(OC)cc1O`, the TGI in the assay on HS 578T breast turned out to be 90 µM; with RPMI-8226 leukemia, 30.5 µM; in the assay on OVCAR-4 ovarian it was 51.3 µM; in the assay on UACC-62 melanoma it was 37.7 µM; in the assay with EKVX NSCLC, 33.3 µM; with CCRF-CEM leukemia it was 52.3 µM. Further, the TGI in the assay on MALME-3M melanoma came out at 42.4 µM; with NCI-H226 lung, 79.3 µM; in the assay with TK-10 renal, 38.6 µM.

With `CC(=O)OC1CCC2(C)C(CCC3C2CCC2(C)C(C4=CC(=O)OC4)CCC32)C1` (stereo not given), the GI50 with HS 578T breast is 4.68 µM; in the assay with RPMI-8226 leukemia it was 0.928 µM; in the assay on RXF 393 renal, 8.73 µM; in the assay on OVCAR-4 ovarian it was 12.1 µM; with UACC-62 melanoma it was 1.01 µM; in the assay with CCRF-CEM leukemia, 1.45 µM. Further, the figures for the GI50 in the assay with MALME-3M melanoma, in the assay with NCI-H226 lung and in the assay on TK-10 renal were 4.23 µM, 22.1 µM and 5.53 µM, respectively. The TGI in the assay on HS 578T breast was found to be 32.1 µM; with RPMI-8226 leukemia it was 3.03 µM; in the assay on RXF 393 renal it was 28.7 µM; with OVCAR-4 ovarian, 95.1 µM; in the assay on UACC-62 melanoma it was 2.74 µM; in the assay with CCRF-CEM leukemia, 4.62 µM. For the same molecule, the TGI was found to be 23.1 µM in the assay with MALME-3M melanoma, 65.1 µM in the assay on NCI-H226 lung and 22.9 µM with TK-10 renal.
